Experiments:
[1] = test system: photothrombosis-induced stroke in mice; experiment: Mouse photothrombotic stroke model; type: in vivo
Experimental: Photothrombosis-induced Stroke: Photothrombosis is performed as described in Zheng et al 2010 (PloS One 5 (12): e14401). In brief, Rose Bengal is a fluorescent dye that when injected into the vasculature and excited, generates singlet oxygen that damages the endothelial wall and induces a local thrombosis (clot). Using this technique, mice are given a 0.1 mL tail-vein injection of sterilized Rose Bengal (RB, Sigma, U.S.A.) in artificial cerebral spinal fluid (aCSF). The RB concentration is 20 mg/mL. A cortical region is centered in the imaging field and illuminated with a green laser (543 nm, 5 mW) using a 0.8-NA 40× water-immersion objective (Nikon, Tokyo). The clot formation is monitored in real time until the targeted vessel or downstream capillaries are firmly occluded. Stable clots are subsequently identified by a non-fluorescent vessel segmentation ending with highly fluorescent regions. […] Treatments, at doses such as 0.5 μmol/kg are introduced via intraperitoneal injections (i.p.). For experiments with A3 receptor antagonist MRS1523, mice are administered intraperitoneal injections (2 mg/kg) at the 0 and 2 hour timepoints to ensure receptor antagonism throughout the course of the study.
Animals and Photothrombosis-induced Stroke: Stroke is performed as described in Zheng et al 2010 (PloS One 5 (12): e14401). Female C57Bl/6 mice (4-6 months) are used in this study. From the methods of this manuscript: Mice are anesthetized at 3% isoflurane with 100% oxygen and subsequently maintained at 1% isoflurane through a nosecone. Depth of anesthesia is monitored and regulated according to vital signs, pinch withdrawal and eye blinks. Body temperature is maintained at 37° C. by a feedback-controlled heating pad (Gaymar T/Pump). Vital signs including oxygen saturation, respiratory rate, and heart rate are continuously monitored by using the MouseOx system (STARR Life Sciences). […]
Post photothrombotic infarction evaluation. The size of cerebral infarcts is evaluated using 2,3,5-Triphenyltetrazolium chloride (TTC) staining as described in Zheng et al 2010 (PloS One 5 (12): e14401). […]

[2] = molecular target: T1, A3 receptor in the mouse (Mus musculus, UniProt Q61618); experiment: Affinity at the mouse A3 receptor; type: binding
T1 sequence (Q61618 1-319): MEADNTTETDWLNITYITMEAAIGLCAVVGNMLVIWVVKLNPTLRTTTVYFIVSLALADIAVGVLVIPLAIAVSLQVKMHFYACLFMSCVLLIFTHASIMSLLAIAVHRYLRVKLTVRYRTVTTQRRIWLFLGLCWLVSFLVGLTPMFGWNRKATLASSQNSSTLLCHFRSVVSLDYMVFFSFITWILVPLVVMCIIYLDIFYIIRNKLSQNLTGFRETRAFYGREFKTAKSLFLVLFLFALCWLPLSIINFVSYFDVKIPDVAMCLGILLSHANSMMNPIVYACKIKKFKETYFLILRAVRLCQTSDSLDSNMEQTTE
Experimental: Similar competition binding assays may be conducted using HEK293 cell membranes expressing mARs using [^125I]I-AB-MECA to label A1 or A3ARs and [3H]CGS21680 to label A2AARs. IC50 values were converted to Ki values using known methods. Nonspecific binding was determined in the presence of 100 μM NECA.

[3] = Nonspecific brain tissue binding (free fraction); type: in vitro ADME, mouse
Description: Example 3 of U.S. Pat. No. 9,789,131, which is incorporated herein by reference, describes assays for determining the plasma and brain free fraction of certain compounds such as I-1. Compounds described herein may be evaluated using such assays or similar variants thereof.

Compound: CSc1nc(N)c2ncn([C@H]3[C@H](O)[C@H](O)[C@]4(CO)C[C@H]34)c2n1 [Compound I-1, (1R,2R,3S,4R,5S)-4-(6-Amino-2-(methylthio)-9H-purin-9-yl)-1-(hydroxymethyl)bicyclo[3.1.0]hexane-2,3-diol]
- efficacy of I-1 in presence of A3 antagonist MRS1523 ([1]; mouse photothrombotic stroke and TBI models, with MRS1523): blocked
- efficacy in mouse photothrombotic stroke model ([1]; mouse, stroke): significant efficacy
- difference in affinity of I-1 and Cl-IB-MECA at mouse A3 receptor ([2]; I-1 versus Cl-IB-MECA): approximately 25,000 fold
- Ki ([2]; mouse A3 receptor, read-out: affinity as agonist of the A3 receptor in the mouse): 4.9 µM
- free (unbound) fraction in brain ([3]; brain tissue): 0.13
- fraction available to interact with the A3 receptor, relative to Cl-IB-IMECA ([3]; mouse models, from unbound fractions): at least 1000 fold
